We go through one molecule from US20250345356A1, “TIRAPAZAMINE COMPOSITIONS AND METHODS” (priority 2024, published 2025).

This series is described as follows: PK of TPZ and metabolites SR4317 and SR4330 after intra-arterial injection of TPZ in NS vs HPβCD. To be noted: for AUClast, HβC Mean / Cmax, HβC Mean / AUClast, Normal Saline (NS) Mean / Cmax, Normal Saline (NS) Mean: rats. In kind it is in vivo, Sprague Dawley rats. The source says:
Purpose of the study: To evaluate the pharmacokinetics (PK) of tirapazamine and its metabolites, SR4317 and SR4330 [Graham, M A et al. Cancer Chemother. Pharmacol. (1997) 40 (1): 1-10], after injection of TPZ in 1% HPβCD or normal saline.
Animals: Twenty-four female (12) and male (12) Sprague Daley (SD) rats, weight 200-250 grams, respectively, with femoral artery and jugular vein cannulated, were purchased from, Taconic. Two extra cannulated male and female rates were used to test tolerability with buffer. Each rate was housed individually to safeguard the vessel catheters.
The study parameters are shown in Table 22. began after a 3-day period of adjustment to the animal facility. The study compound was injected into the femoral artery catheter (FAC at 2-1 m (by slow injection. Blood samples were collected from a jugular vein catheter (JVC) at 6 timepoints: 0 (baseline) and after drug administration at 15 and 30 minutes, 1 hr, 2 hr, and 6 hours. The volume of blood sample for each time point was approximately 0.6 mL. Plasma samples were collected in tubes containing sodium heparin as anti-coagulant. Plasma was prepared and frozen in −80° C. Rats were euthanized after the last blood sample (euthanized after the 6 hr time point).
Male rats were around 250 grams, and female 200 grams. There were 8 groups with Groups 1-4 females, and […]. Each group had 3 rats. TPZ was dissolved in NS or […] at a concentration 0.7 mg/mL.
The concentrations of TPZ and its metabolites, SR4317 and SR4330, in rat plasma samples were analyzed using liquid chromatography Tandem Mass Spectrometry (LC-MS) by Primera Analytical Solutions Corp (Princeton, NJ). Standards for TPZ, SR4317 and SR4330 were provided by Teclison, Inc. (Princeton, NJ) for calibration. All analytical data were reviewed for completeness and accuracy. Data transferred manually was cross-checked against source data which was part of the study raw data.
LC-MS analysis was conducted with Sciex 4000 with a Shimadzu LC-30 System.
The concentration data was imported and plotted with SAS program as ADPC (Analysis Dataset of Pharmacokinetics Concentrations) dataset. PK parameters calculated based on ADPC were output as an Analysis Dataset of Pharmacokinetics Parameters (ADPP) dataset.
PK parameters of each profile were calculated by non-compartmental analysis using SAS programming. BLQ (Below the Limit of Quantification) observation prior to the first measurable concentration was imputed as zero, otherwise, the BLQ observation was left as missing.
An apparent first-order terminal elimination rate constant (Kel) was calculated by linear least-squares regression analysis using at least three points (excluding Cmax) in the terminal log-linear phase. Uniform weighting was adopted when performing regression analysis. Linear-up/log-down approach was utilized to calculate AUC.
A linear model was built to evaluate the effect of solution on the PK parameters, adjusting for sex and dose. The model included sex (F, M), solution type (Normal saline, Hydroxypropyl-beta-Cyclodextrin “HP-beta-CD”), and dose (mg) as fixed effects. Sex and solution type are categorical variables (meaning a variable based on a qualitative, not numerical, property) and dose is a continuous variable (meaning a random variable that can take on an infinite number of values within a certain interval that represents measurable data). Separate models were built for each combination of analyte (TPZ, SR4317 and SR4330) and PK parameters (AUClast and Cmax) using the BY statement, which divides the observations from an input data set into groups for processing.
The difference of lease squared means between solution types was estimated. 95% confidence intervals (CI), and p-values for the difference were presented. The significance level (alpha) was set at 0.05, meaning that a p-value less than 0.05 was considered statistically significant.

[1] abbreviates: intra-arterial TPZ 3.33 mg/kg in HPβCD.
The mark [2] stands for this setting: intra-arterial TPZ 3.33 mg/kg in NS.
Where [3] appears, read: intra-arterial TPZ 7 mg/kg in HPβCD.
The mark [4] stands for this setting: intra-arterial TPZ 7 mg/kg in NS.

On to `Nc1n[n+]([O-])c2ccccc2[n+]1[O-]` [tirapazamine, 3-amino-1,2,4-benotriazine-1,4-di-N-oxide], for which, where the note is “3.33 mg/kg”, the “AUClast HβC/NS Ratio (%)” value came to 86.94% and the “Cmax HβC/NS Ratio (%)” value was 91.15%. Where the note is “3.33 mg/kg vs. 7 mg/kg in either solvent”, the “dose proportionality of plasma concentrations” value is recorded as “dose proportional effect was observed”. Under “7 mg/kg”, the “AUClast HβC/NS Ratio (%)” value came to 94.02% and the “Cmax HβC/NS Ratio (%)” value is given as 101.02%. For the setting “FIG. 23”, the “plasma concentrations, TPZ in NS versus HPβCD” value is recorded as “no difference”. Moreover, under setting [1], the “AUClast, HβC Mean” value stood at 781.49 ng·h/mL and the “Cmax, HβC Mean” value was determined as 1476.67 ng/mL. Moreover, under setting [2], the “AUClast, Normal Saline (NS) Mean” value turned out to be 898.92 ng·h/mL and the “Cmax, Normal Saline (NS) Mean” value is listed as 1620.00 ng/mL. For the same molecule, under setting [3], the “AUClast, HβC Mean” value was 2423.84 ng·h/mL and the “Cmax, HβC Mean” value worked out at 4468.33 ng/mL. Moreover, under setting [4], the “AUClast, Normal Saline (NS) Mean” value was found to be 2578.02 ng·h/mL and the “Cmax, Normal Saline (NS) Mean” value turned out to be 4423.33 ng/mL.
